“And” between values parts separate entries of the source, which are not always exact repeats. Equal values may be shown once.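 Method: 48-hour compound exposure of cells in 96-well plates, five concentrations, linear interpolation of endpoints. GI50: concentration for 50% inhibition of growth. TGI is the concentration that stops growth completely.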

Test systems include COLO 205 colon; HOP-62 NSCLC; HT29 colon; KM12 colon; M14 melanoma; NCI-H226 lung; NCI-H522 lung; OVCAR-4 ovarian; SK-MEL-2 melanoma; TK-10 renal.
Holding throughout (assay): growth of human tumour cells (NCI), 48 h

`CSc1nc(SC)c2c(C)cn(Cc3ccccc3)c2n1`: the TGI in the assay on COLO 205 colon, with HOP-62 NSCLC, in the assay with HT29 colon, with KM12 colon, in the assay with M14 melanoma and in the assay on NCI-H226 lung was greater than 100 µM each time. Moreover, the TGI with NCI-H522 lung, in the assay with OVCAR-4 ovarian, in the assay with SK-MEL-2 melanoma and in the assay with TK-10 renal was greater than 100 µM each time.
On to `O=C1NC(=N[C@@H]2C[C@H]2c2ccccc2)S/C1=C\c1ccc2ncccc2c1`, for which the GI50 is 0.813 µM with COLO 205 colon; 1.67 µM in the assay with HOP-62 NSCLC; 1.12 µM with HT29 colon; 1.47 µM in the assay with KM12 colon; 1.34 µM in the assay with M14 melanoma; 3.18 µM in the assay on NCI-H226 lung. Moreover, the GI50 in the assay on NCI-H522 lung was 0.776 µM; in the assay on OVCAR-4 ovarian it was 0.854 µM; with SK-MEL-2 melanoma, 4 µM; in the assay with TK-10 renal it was 0.899 µM. Moreover, the TGI in the assay with COLO 205 colon is 2.35 µM; in the assay on HOP-62 NSCLC, 6.38 µM; in the assay on HT29 colon it was 9.04 µM; in the assay on KM12 colon, greater than 12.7 µM; in the assay with M14 melanoma, greater than 25 µM; in the assay with NCI-H226 lung it was 10.2 µM. Moreover, the TGI in the assay with NCI-H522 lung was determined as 3.12 µM; with OVCAR-4 ovarian, 6.71 µM; in the assay with SK-MEL-2 melanoma it was 9.55 µM; in the assay on TK-10 renal it was 5.58 µM.
In the case of `CCN1C2=C(SC(=S)C1=C1SC(C(=O)c3ccccc3)=C(C(=O)c3ccccc3)S1)SC(=Nc1ccccc1)C2=O`, the GI50 with COLO 205 colon is greater than 100 µM; in the assay with HOP-62 NSCLC, 21.7 µM; with HT29 colon, 16.5 µM; in the assay with KM12 colon, 51 µM; with M14 melanoma it was greater than 100 µM; with NCI-H226 lung it was 25.7 µM. The GI50 in the assay on NCI-H522 lung was 5.43 µM; with OVCAR-4 ovarian, greater than 100 µM; in the assay with SK-MEL-2 melanoma, 7.74 µM; with TK-10 renal, 13.3 µM. The TGI is greater than 100 µM in the assay on COLO 205 colon; 76.2 µM in the assay on HOP-62 NSCLC; greater than 100 µM in the assay with HT29 colon; greater than 100 µM with KM12 colon; greater than 100 µM with M14 melanoma; greater than 100 µM in the assay on NCI-H226 lung. Besides, the TGI in the assay on NCI-H522 lung is greater than 20.8 µM; in the assay with OVCAR-4 ovarian it was greater than 100 µM; in the assay on SK-MEL-2 melanoma it was greater than 47.3 µM; in the assay on TK-10 renal it was greater than 83.7 µM.
For `Nc1ncnc2occ(-c3ccc(NC(=O)Nc4cc(C(F)(F)F)ccc4F)cc3)c12`, the GI50 with COLO 205 colon is 5.27 µM and 3.74 µM; in the assay on HOP-62 NSCLC it was 6.32 µM and 2.3 µM; with HT29 colon, 4.42 µM and 2.64 µM; in the assay with KM12 colon, 0.133 µM and 0.115 µM; in the assay with M14 melanoma it was 5.86 µM and 2.54 µM; in the assay on NCI-H226 lung, 0.717 µM and 0.929 µM. The GI50 is 5.48 µM and 1.91 µM with NCI-H522 lung; 4.2 µM and 2.36 µM with OVCAR-4 ovarian; 6.25 µM and 3.36 µM in the assay with SK-MEL-2 melanoma; 4.78 µM and 1.6 µM with TK-10 renal. Also, the TGI is 9.88 µM and 7.13 µM in the assay on COLO 205 colon; 16.2 µM and 5.95 µM in the assay with HOP-62 NSCLC; 11.6 µM and 7.03 µM in the assay with HT29 colon; 4.81 µM and 3.08 µM in the assay with KM12 colon; 21.4 µM and 7.11 µM in the assay on M14 melanoma; 18.7 µM and 7.01 µM with NCI-H226 lung. Moreover, the TGI with NCI-H522 lung was 11.2 µM and 5.81 µM; with OVCAR-4 ovarian it was 17.1 µM and 14.6 µM; in the assay on SK-MEL-2 melanoma, 12.3 µM and 8.36 µM; in the assay with TK-10 renal, 14.3 µM and 8.76 µM.
Consider `CCOC(=O)c1c2c(n(Cc3ccccc3)c1C)-c1nc[nH]c1C(=O)C2=O`, for which the GI50 in the assay with COLO 205 colon is 20.2 µM; with HOP-62 NSCLC it was 18.6 µM; with HT29 colon it was 28.9 µM; in the assay on KM12 colon, 13.9 µM; in the assay with M14 melanoma it was 21.4 µM; in the assay with NCI-H226 lung, 20.9 µM. Moreover, the GI50 in the assay with NCI-H522 lung was 15 µM; with OVCAR-4 ovarian, 13.5 µM; in the assay with SK-MEL-2 melanoma, 17.7 µM; in the assay on TK-10 renal, 16.2 µM. In addition, the TGI in the assay on COLO 205 colon came to 35.1 µM; with HOP-62 NSCLC it was 33.2 µM; in the assay with HT29 colon, 76.4 µM; with KM12 colon, 27.7 µM; in the assay with M14 melanoma it was 37.9 µM; in the assay with NCI-H226 lung, 47.2 µM. Moreover, the TGI in the assay on NCI-H522 lung was determined as 28.8 µM; with OVCAR-4 ovarian, 26.3 µM; in the assay with SK-MEL-2 melanoma, 32.2 µM; in the assay on TK-10 renal, 31.3 µM.
For `c1ccc2c(CNCCCN3CCN(CCCNCc4cccc5ccccc45)CC3)cccc2c1`, the TGI in the assay with COLO 205 colon is 3.85 µM; with HOP-62 NSCLC, 34.4 µM; in the assay with HT29 colon it was 3.2 µM; with KM12 colon, 3.7 µM; in the assay with M14 melanoma, 2.42 µM; with NCI-H226 lung it was 7.75 µM. In addition, the TGI with NCI-H522 lung was 2.99 µM; in the assay on OVCAR-4 ovarian it was 5 µM; in the assay with SK-MEL-2 melanoma, 3.02 µM; with TK-10 renal, 2.95 µM.
Turning to `N#CCC(=O)N/N=C(/C(=O)Nc1ccccc1)C1C(=O)N(c2ccccc2)N=C1N` (stereo not given), the TGI with COLO 205 colon, in the assay with HOP-62 NSCLC, in the assay on HT29 colon, in the assay with KM12 colon, with M14 melanoma and in the assay on NCI-H226 lung was greater than 100 µM in each case. Further, the TGI in the assay with NCI-H522 lung, in the assay on OVCAR-4 ovarian, with SK-MEL-2 melanoma and in the assay with TK-10 renal was greater than 100 µM in each case.
Regarding `Oc1c(CCl)cc(Cl)cc1Cc1cc(Cl)cc(Cc2cc(Cl)cc(CCl)c2O)c1O`, the GI50 with COLO 205 colon is 7.14 µM; with HOP-62 NSCLC, 4.42 µM; in the assay on HT29 colon, 5.37 µM; in the assay with KM12 colon, 3.43 µM; in the assay with M14 melanoma it was 3.54 µM; in the assay on NCI-H226 lung it was 4.11 µM. For the same molecule, the GI50 with NCI-H522 lung was 2.73 µM; in the assay on OVCAR-4 ovarian, 3.1 µM; in the assay with SK-MEL-2 melanoma, 2.16 µM; with TK-10 renal, 3.9 µM. The TGI in the assay with COLO 205 colon worked out at 26.7 µM; in the assay on HOP-62 NSCLC, 26.5 µM; with HT29 colon it was 17.6 µM; in the assay on KM12 colon, 13.5 µM; with M14 melanoma it was 15.7 µM; in the assay with NCI-H226 lung it was 21.1 µM. Also, the TGI with NCI-H522 lung came to 10.2 µM; in the assay on OVCAR-4 ovarian it was 64.7 µM; with SK-MEL-2 melanoma it was 6.82 µM; with TK-10 renal, 24.1 µM.

These data come from PubChem BioAssay (NCI).
